Laboratory results as given in patent US12467038B2, “Methods of culturing human pluripotent cells” (Hadasit Medical Research Services and Development Ltd., priority 2019, dated 2025).

Columns and labels:
Assay type in all cases: cell-based, human
LN-hPSCs [1] = assay: Immunofluorescence staining after WNT activation; conditions: upon WNT activation with CHIR
Description: (§1) Signaling pathways analysis—hPSCs were cultured on LN111 for 2 days in complete medium, and then for additional 3-5 days in a medium+/−FGF2 in the presence of the following small molecules: PD032590 1 μM (Peprotech), LY294002 10 μM, SB431542 10 μM, CHIR99021 3 μM (all from Cayman Chemical, Michigan, USA), XAV939 2.5 μM (Peprotech), BMP4 50 ng/ml (Biogems-Peprotech).
Immunofluorescence staining: 4-6 day hESC colonies were fixed with 4% paraformaldehyde for 20 min at RT, permeabilized and blocked with 0.2% Triton X100 (Sigma-Aldrich), 5% normal goat/donkey serum (Biological industries, Beit Haemek, Israel) in PBS for 45 min, and incubated 1 hour at RT with the following primary antibodies: mouse IgG2b anti-human Oct4 (1:50; Cat. No. SC5279, Santa Cruz Biotechnology Inc., USA), goat polyclonal IgG anti-human FGF5 (1:250; Cat. No. AF-237-NA, R&D Systems, Minneapolis, Minn., USA), Rabbit polyclonal IgG anti-GFP (1:250; Cat. No. A11122, Invitrogen), goat polyclonal IgG anti-Brachyury (1:150; Cat. No. AF-2085, R&D Systems), and goat polyclonal IgG anti-human OTX2 (1:50; Cat. No. AF-1979, R&D Systems). […]

LN-hPSCs [2] = assay: Signaling pathways analysis, phase-contrast colony morphology
Description: as §1
as §1, with “analysis-hPSCs” for “analysis—hPSCs”

LN-hPSCs [3] = assay: Signaling pathways analysis, Real-Time PCR of marker expression
Description: as §1
(§2) Real Time PCR analysis—A relative gene expression quantitation assay was performed by amplification of 50 ng cDNA by Real Time PCR, using ABI Prism 7900HT Sequence Detection System (Applied Biosystems (ABI), Foster City, Calif.), specific TaqMan® Gene Expression Assays and TaqMan Fast Universal PCR master Mix. Human β-glucuronidase (gusB) or human β-actin (actB) were used as endogenous gene references. Data was analyzed using the RQ Manager Software v1.2 (ABI). For global expression analysis of pluripotency and differentiation associated genes, 200 ng cDNA were subjected to Real Time PCR amplification using Applied Biosystems® TaqMan® Human Stem Cell Pluripotency Array (Cat. No. 4385344), and Taqman Gene Expression Master Mix. Array data was analyzed using the DataAssist Software v2.0 (ABI).
as §1, with “analysis-hPSCs” for “analysis—hPSCs”
as §2, with “of 25-50” for “of 50”, “by Real-Time” for “by Real Time”, “and TaqMan®” for “and TaqMan”, “PCR Master Mix (All from Invitrogen).” for “PCR master Mix.”, “to Real-time” for “to Real Time”

LN-hPSCs [4] = assay: FACS analysis of pluripotency cell-surface markers; conditions: basic medium supplemented with FGF2, XAV939 2.5 μM
Description: Signaling pathways analysis—hPSCs were cultured on LN111 for 2 days in complete medium, and then for additional 3-5 days in a medium+/−FGF2 in the presence of the following small molecules: PD032590 1 μM (Peprotech), LY294002 10 μM, SB431542 10 μM, CHIR99021 3 μM (all from Cayman Chemical, Michigan, USA), XAV939 2.5 μM (Peprotech), BMP4 50 ng/ml (Biogems-Peprotech). FACS analysis—FACS analyses were performed using the following primary antibodies: mouse IgM anti-TRA-1-60 (1:100; mab4360, R&D), and mouse IgM anti-TRA-1-81 (1:100; mab4381, R&D), and Rat IgM anti-SSEA-3. Staining with respective isotype control antibodies (all from eBiosciences) served as controls. Detection of primary antibodies was performed using the following secondary antibodies: FITC-conjugated Polyclonal Goat Anti-Mouse Immunoglobulins (1:100; Dako, Glostrup, Denmark), APC-conjugated Goat anti-Mouse IgM/G (1:200; Cat. No. 1020-11, SouthernBiotech, Birmingham, Ala., USA), and APC-conjugated anti-Rat (1:200; eBioscience). FACS analysis was performed on a FACScalibur system (Becton-Dickinson, San Jose, Calif.) using the Cellquest software. A detailed FACS procedure is described elsewhere. FACS analysis—FACS analyses for pluripotency marker expression were performed using mouse anti-TRA-1-60 (1:100; mab4360, R&D), and mouse anti-TRA-1-81 (1:100; mab4381, R&D). […]

hPSCs = assay: Undifferentiated propagation and PGC differentiation of hPSCs on laminin; conditions: HES-1 hPSCs
Description: LN-hPSCs were cultured on mouse LN111, 3-D Culture Matrix Laminin I (CULTREX, TREVIGEN, #3446-005-01, Gaithersburg, Md., USA). 0.175 ml diluted LN111 (1:14 to a coating concentration of 0.43 mg/ml) was used to coat a well of a 6-well culture dish, leaving a margin of 2-3 mm at the well edge (a final concentration of ˜8 microgram/cm^2). The coated dishes were incubated from 4 hours to 4 days, at 37° C., and washed with PBS before use. LN-hPSCs were cultured in a medium composed of DMEM/F12, B27 supplement (1:50), N2 supplement (1:100), 2 mM L-glutamine, 50 units/ml penicillin, 50 μg/ml streptomycin (all from Invitrogen), and supplemented daily with 20 ng/ml FGF2 (Peprotech). Cells were passaged every 5-6 days using 1.5 mg/ml collagenase type IV (Invitrogen). 5 μM ROCK inhibitor (Y-27632, Peprotech) was added for the first day after passaging.
hPSCs were cultured on human recombinant LN521 (BIOLAMINA, Sundbyberg, Sweden). Coating of culture dishes with hrLN521 was performed according to the manufacturer's instructions (Coating concentration ˜0.45 microgram/cm^2). Cells were cultured in the same medium used for culturing LN-hPSCs, and passaged with collagenase type IV.
PGC differentiation of hPSCs in suspension—LN-hPSCs and hPSCs cultured on hrLN-521 were dissociated into a single-cell suspension using TrypLE Select Enzyme (Invitrogen). Primed hPSCs were first dissociated from the MEF feeders by treatment with collagenase type IV, followed by dissociation into single cells by TrypLE Select Enzyme. 2000-3000 cells were seeded into a microwell of AggreWell™800 24-well plate (STEMCELL Technologies), and cultured as EBs in suspension, in PGCLC differentiation medium as described elsewhere (Irie et al., 2015).

[5] = medium depleted for FGF2, in the presence of the inhibitor, five days

Compound: Cc1c[nH]c(-c2cnc(NCCNc3ccc(C#N)cn3)nc2-c2ccc(Cl)cc2Cl)n1 [CHIR, CHIR99021]
- T-positive cells (immunostaining) (LN-hPSCs [1]): expressed in the majority of the cells
- LN-hPSC colony morphology (LN-hPSCs [2]; 3 days in the presence of CHIR): appeared differentiated
- expression of PS and mesendodermal markers T, SOX17, and GSC (LN-hPSCs [3]; 3 days in the presence of CHIR): up-regulation
- expression of core pluripotency TFs Oct4, Nanog and SOX2 as well as OTX2 (LN-hPSCs [3]; 3 days in the presence of CHIR): down-regulation
- expression of early ecdodermal marker PAX6 (LN-hPSCs [3]; 3 days in the presence of CHIR): down-regulated

Compound: O=C(NOC[C@H](O)CO)c1ccc(F)c(F)c1Nc1ccc(I)cc1F [PD032590]
- differentiation as evidenced by changes in cell morphology (LN-hPSCs [2]; [5]): Differentiation was observed
- Oct4 and Nanog expression levels (LN-hPSCs [3]; [5]): significant down-regulation

Compound: NC(=O)c1ccc(-c2nc(-c3ccc4c(c3)OCO4)c(-c3ccccn3)[nH]2)cc1 [SB431542]
- colony morphology (LN-hPSCs [2]; FGF2 depleted from the medium): the colonies including the margins differentiated
- colony morphology (LN-hPSCs [2]; medium containing FGF2, 5 d): appeared differentiated
- Oct4 and Nanog expression levels (LN-hPSCs [3]; FGF2 depleted from the medium): strongly reduced
- Nanog expression (LN-hPSCs [3]; medium containing FGF2, 5 d): drastically reduced
- Oct4 levels (LN-hPSCs [3]; medium containing FGF2, 5 d): moderately down-regulated

Compound: Oc1nc(-c2ccc(C(F)(F)F)cc2)nc2c1CSCC2 [XAV939]
- percentages of cells expressing TRA-1-60 (LN-hPSCs [4]): did not affect
- LN-hPSC colonies morphology (LN-hPSCs [2]; basic medium supplemented with FGF2, XAV939 2.5 μM): did not affect

Compound: BMP4: BMP4 50 ng/ml (Biogems-Peprotech), conserved role in germ cell specification
- expression of early PGC TFs PRDM1 (BLIMP1) and TFAP2C (LN-hPSCs [3]; BMP4 treatment): induced the expression
- expression of formative pluripotency TFs OTX2 and FOXD3 (LN-hPSCs [3]; BMP4 treatment): down-regulation

Compound: hrLN521: human recombinant LN521 (BIOLAMINA), coating of culture dishes
- competence to initiate germ cell specification (hPSCs): competent to initiate germ cell specification
- undifferentiated propagation of hPSCs expressing markers of pluripotency and early post-implantation epiblast (hPSCs): supports the undifferentiated propagation
